PMC7031696 (Cell chemical biology, 2019)
Entries after “also recorded” stand apart in the source; their conditions may differ. Read-outs that look alike come from different tables or passages of the source.

How the values were obtained:
[1] = test system: asynchronous 3D7-A10 parasite cultures; assay: Standard 72-h exposure asexual blood stage susceptibility assay (IC50^72h); format: cell-based, Plasmodium falciparum; conditions: Plasmodium falciparum, 3D7, 72 h, read-out: Overall (72hr assay) Mean IC50 (IC50^72h)
[2] = test system: Plasmodium falciparum 3D7-A10 parasites; assay: Stage specificity assay (8-h exposure of synchronized stages, IC50^8h); format: cell-based; conditions: for IC50: Plasmodium falciparum
physchem = conditions: pH 7.4, aqueous buffer, kinetic from dmso stock
[3] = test system: 3D7-MR4 trophozoite parasite-infected RBCs; conditions: 10 × IC50^72h; ref Allman et al., 2016; cited from earlier work
[4] = test system: 3D7-MR4 trophozoite parasite-infected RBCs; assay: Metabolomic profiling (hydrophilic metabolite changes, UHPLC-MS); format: cell-based, Plasmodium falciparum
[5] = 3D7, read-out: Early rings Mean IC50 (IC50^8h), 8-h exposure 0–8 hr, 3D7-A10, survival at 60 h
[6] = 3D7, read-out: Early trophozoites Mean IC50 (IC50^8h), 8-h exposure 16–24 hr, 3D7-A10, survival at 60 h
[7] = 3D7, read-out: Late rings Mean IC50 (IC50^8h), 8-h exposure 8–16 hr, 3D7-A10, survival at 60 h
[8] = 3D7, read-out: Late trophozoites Mean IC50 (IC50^8h), 8-h exposure 24–32 hr, 3D7-A10, survival at 60 h
[9] = 3D7, read-out: Schizonts Mean IC50 (IC50^8h), 8-h exposure 32–40 hr, 3D7-A10, survival at 60 h

C[C@H]1[C@@H](O)O[C@@H]2O[C@@]3(C)CC[C@H]4[C@H](C)CC[C@@H]1[C@@]24OO3 [Dihydroartemisinin, reference compound]
IC50 [1]: 1 nM
overall activity profile (stages on which active) ([2]; 8-h exposures): activity on all stages
IC50 [2, 5]: 1.5 nM
IC50 [2, 6]: 2.4 nM
IC50 [2, 7]: 2.4 nM
IC50 [2, 8]: 3.9 nM
IC50 [2, 9]: 11.6 nM
Stage of peak activity (Figure 6) ([2]; period when the parasite was most susceptible (lowest IC50^8h)): ring and trophozoite stages; also recorded: rings and trophozoites
solubility at 1.5 h (physchem): ≥ 500 µM

COCCNCC(O)Cn1c2ccc(Cl)cc2c2cc(Cl)ccc21 (stereo not shown) [MMV019017]
IC50 [1]: 306 nM
levels of cAMP [3]: decreased
levels of the deoxyribonucleotides dAMP and dTMP [3]: increased
nucleoside di- and tri-phosphate levels (GDP, UDP, GTP, dATP, dGTP/ATP, dUTP) [3]: decreased
peptide levels (hemoglobin catabolism signature) [3]: decreased peptide levels
Ratio lowest IC50 8hr/IC50 72hr ([2]; 3D7-A10): 4.4
IC50 ([2]; 3D7, 8 h, read-out: IC50^8h values at all tested stages, 8-h exposures, all asexual blood stages): > 1000 nM
IC50 [2, 5]: 8420 nM
IC50 [2, 6]: 1340 nM
IC50 [2, 7]: 8660 nM
IC50 [2, 8]: 1710 nM
IC50 [2, 9]: 3060 nM
Log2(fold changes) 3-phosphoglycerate ([4]; metabolite 3-phosphoglycerate, log2 fold change): -0.1375
Log2(fold changes) 4-Pyridoxic acid ([4]; metabolite 4-Pyridoxic acid, log2 fold change): 0.0658
Log2(fold changes) 4-aminobutyrate ([4]; metabolite 4-aminobutyrate, log2 fold change): 1.1150
Log2(fold changes) 4-phosphopantetheine ([4]; metabolite 4-phosphopantetheine, log2 fold change): 0.0000
Log2(fold changes) 4-phosphopantothenate ([4]; metabolite 4-phosphopantothenate, log2 fold change): -1.0497
Log2(fold changes) 5-aminopentanoic acid ([4]; metabolite 5-aminopentanoic acid, log2 fold change): 0.0000
Log2(fold changes) 5-methyl-THF ([4]; metabolite 5-methyl-THF, log2 fold change): 0.0000
Log2(fold changes) 5-phosphoribosyl-1-pyrophosphate ([4]; metabolite 5-phosphoribosyl-1-pyrophosphate, log2 fold change): -1.1636
Log2(fold changes) 6-phospho-D-gluconate ([4]; metabolite 6-phospho-D-gluconate, log2 fold change): -0.4356
Log2(fold change) HVDD ([4]; metabolite HVDD): 0.0000
Log2(fold change) Hydroxyisocaproic acid ([4]; metabolite Hydroxyisocaproic acid): 0.0000
Log2(fold change) IDP ([4]; metabolite IDP): 0.0000
Log2(fold change) IMP ([4]; metabolite IMP): 0.0176
Log2(fold change) Inositol ([4]; metabolite Inositol): 0.0000
Log2(fold change) Isopentyl-PP ([4]; metabolite Isopentyl-PP): 0.0000
Log2(fold change) L-arginino-succinate ([4]; metabolite L-arginino-succinate): 0.0000
Log2(fold change) LD ([4]; metabolite LD): -2.3846
Log2(fold change) Myristoyl/tetradecanoyl-CoA ([4]; metabolite Myristoyl/tetradecanoyl-CoA): 0.0000
Log2(fold change) N-Acetyl-L-alanine ([4]; metabolite N-Acetyl-L-alanine): -0.1766
Log2(fold change) N-acetyl-L-ornithine ([4]; metabolite N-acetyl-L-ornithine): -1.7936
Log2(fold change) N-acetyl-glucosamine-1/6-phosphate ([4]; metabolite N-acetyl-glucosamine-1/6-phosphate): -1.5222
Log2(fold change) N-acetyl-glutamate ([4]; metabolite N-acetyl-glutamate): 0.3951
Log2(fold change) N-acetyl-glutamine ([4]; metabolite N-acetyl-glutamine): 0.6689
Log2(fold change) N-carbamoyl-L-aspartate ([4]; metabolite N-carbamoyl-L-aspartate): -1.9472
Log2(fold change) NAD+ ([4]; metabolite NAD+): -0.1399
Log2(fold change) NADH ([4]; metabolite NADH): 0.8540
Log2(fold change) NADP+ ([4]; metabolite NADP+): 0.2168
Log2(fold change) NADPH ([4]; metabolite NADPH): 0.4083
Log2(fold change) O-acetyl-L-serine ([4]; metabolite O-acetyl-L-serine): 0.0000
Log2(fold change) Octoluse 8/1P ([4]; metabolite Octoluse 8/1P): -0.2135
Log2(fold change) Octoluse Bisphosphate ([4]; metabolite Octoluse Bisphosphate): -5.4193
Log2(fold change) PD ([4]; metabolite PD): -1.1341
Log2(fold change) PE ([4]; metabolite PE): 0.0923
Log2(fold change) PEE ([4]; metabolite PEE): 0.2942
Log2(fold change) PEEK ([4]; metabolite PEEK): -0.4238
Log2(fold change) PVNF ([4]; metabolite PVNF): -4.6843
Log2(fold change) Pyroglutamic acid ([4]; metabolite Pyroglutamic acid): 0.4950
Log2(fold change) Pyrophosphate ([4]; metabolite Pyrophosphate): -2.5918
Log2(fold change) Ribose-5-phosphate ([4]; metabolite Ribose-5-phosphate): 0.0000
Log2(fold change) S-adenosyl-L-homocysteine ([4]; metabolite S-adenosyl-L-homocysteine): -0.4383
Log2(fold change) S-adenosyl-L-methioninamine ([4]; metabolite S-adenosyl-L-methioninamine): 0.0000
Log2(fold change) S-adenosyl-L-methionine ([4]; metabolite S-adenosyl-L-methionine): 0.0000
Log2(fold change) S-methyl-5'-thioadenosine ([4]; metabolite S-methyl-5'-thioadenosine): 0.0000
Log2(fold change) SD ([4]; metabolite SD): -1.6540
Log2(fold change) SDL ([4]; metabolite SDL): 0.0000
Log2(fold change) SID ([4]; metabolite SID): 0.0000
Log2(fold change) Sedoheptulose bisphosphate ([4]; metabolite Sedoheptulose bisphosphate): -1.7256
Log2(fold change) Thiamine pyrophosphate ([4]; metabolite Thiamine pyrophosphate): 0.0000
Log2(fold changes) UDP-D-glucose ([4]; metabolite UDP-D-glucose, log2 fold change): 0.0449
Log2(fold changes) UDP-D-glucuronate ([4]; metabolite UDP-D-glucuronate, log2 fold change): -0.4277
Log2(fold changes) UDP-N-acetyl-glucosamine ([4]; metabolite UDP-N-acetyl-glucosamine, log2 fold change): -0.2402
Log2(fold changes) UDP ([4]; metabolite UDP, log2 fold change): -1.4536
Log2(fold changes) UMP ([4]; metabolite UMP, log2 fold change): -0.1145
Log2(fold changes) UTP ([4]; metabolite UTP, log2 fold change): -1.8511
Log2(fold change) hydroxyphenylpyruvate ([4]; metabolite hydroxyphenylpyruvate): 0.0000
Log2(fold change) hydroxyproline/Aminolevulinate ([4]; metabolite hydroxyproline/Aminolevulinate): 0.0000
Log2(fold change) hypoxanthine ([4]; metabolite hypoxanthine): 1.0399
Log2(fold change) indole ([4]; metabolite indole): 0.2468
Log2(fold change) inosine ([4]; metabolite inosine): 0.3793
Log2(fold change) isoleucine ([4]; metabolite isoleucine): 0.0000
Log2(fold change) lactate ([4]; metabolite lactate): -0.6725
Log2(fold change) leucine ([4]; metabolite leucine): 0.0000
Log2(fold change) lysine ([4]; metabolite lysine): 0.0000
Log2(fold change) malate ([4]; metabolite malate): 0.0811
Log2(fold change) maleic acid ([4]; metabolite maleic acid): 0.0000
Log2(fold change) methionine ([4]; metabolite methionine): 0.0000
Log2(fold change) myo-inositol ([4]; metabolite myo-inositol): -2.8253
Log2(fold change) nicotinamide mononucleotide ([4]; metabolite nicotinamide mononucleotide): 0.0000
Log2(fold change) nicotinate ([4]; metabolite nicotinate): 1.9078
Log2(fold change) ornithine ([4]; metabolite ornithine): 0.0801
Log2(fold change) orotate ([4]; metabolite orotate): 1.9702
Log2(fold change) orotidine-5'-phosphate ([4]; metabolite orotidine-5'-phosphate): 0.0000
Log2(fold change) oxaloacetate ([4]; metabolite oxaloacetate): 0.0000
Log2(fold change) p-aminobenzoate ([4]; metabolite p-aminobenzoate): 0.0000
Log2(fold change) p-hydroxybenzoate ([4]; metabolite p-hydroxybenzoate): 0.7031
Log2(fold change) pantothenate ([4]; metabolite pantothenate): 0.0000
Log2(fold change) phenylalanine ([4]; metabolite phenylalanine): 0.0000
Log2(fold change) phenylpyruvate ([4]; metabolite phenylpyruvate): 1.2139
Log2(fold change) phosphoenolpyruvate ([4]; metabolite phosphoenolpyruvate): 0.7560
Log2(fold change) prephenate ([4]; metabolite prephenate): 0.0000
Log2(fold change) proline ([4]; metabolite proline): 0.0000
Log2(fold change) pyridoxine ([4]; metabolite pyridoxine): 0.0000
Log2(fold change) pyruvate ([4]; metabolite pyruvate): -0.9980
Log2(fold change) riboflavin ([4]; metabolite riboflavin): 0.0000
Log2(fold change) ribose ([4]; metabolite ribose): 0.0000
Log2(fold change) ribose-phosphate ([4]; metabolite ribose-phosphate): -0.9470
Log2(fold change) ribulose-5-phosphate ([4]; metabolite ribulose-5-phosphate): 0.0000
Log2(fold change) serine ([4]; metabolite serine): 0.0000
Log2(fold change) sn-glycerol-3-phosphate ([4]; metabolite sn-glycerol-3-phosphate): 0.0194
Log2(fold change) succinate/Methylmalonic acid ([4]; metabolite succinate/Methylmalonic acid): 0.4365
Log2(fold change) succinyl-CoA/methylmalonyl-CoA ([4]; metabolite succinyl-CoA/methylmalonyl-CoA): 0.0000
Log2(fold change) taurine ([4]; metabolite taurine): 0.0000
Log2(fold change) thiamine ([4]; metabolite thiamine): 0.0000
Log2(fold change) threonine/homoserine ([4]; metabolite threonine/homoserine): 0.0000
Log2(fold change) thymidine ([4]; metabolite thymidine): -1.7681
Log2(fold changes) thymine ([4]; metabolite thymine, log2 fold change): -1.7003
Log2(fold changes) trehalose-6-Phosphate ([4]; metabolite trehalose-6-Phosphate, log2 fold change): 0.0000
Log2(fold changes) tryptophan ([4]; metabolite tryptophan, log2 fold change): 0.0000
Log2(fold changes) tyrosine ([4]; metabolite tyrosine, log2 fold change): 0.0000
Log2(fold changes) uridine ([4]; metabolite uridine, log2 fold change): -0.5758
